Converted amounts (≈) assume the structure as drawn. Positions of bridges follow the written chain, without caps; N, C: chain ends. Residues, ends and D or L forms follow the SMILES beside them. No end group written: not given here.
Columns and labels:
[1] = test system: E. faecalis V583; assay: microbe, parasite or virus in culture; type: cell-based, Enterococcus faecalis; conditions: peptide alone, without vancomycin; VanB
[2] = test system: E. faecalis JH2-2 08048; assay: microbe, parasite or virus in culture; type: cell-based, Enterococcus faecalis; conditions: peptide alone, without vancomycin; VanB
Method: (§1) The MIC of vancomycin was determined by the microdilution method described in the guidelines of the European Committee on Antimicrobial Susceptibility Testing (EUCAST 2024, v14.0 Breakpoint Tables).[58] For enterococci, GM17 medium was used instead of CAMH medium since enterococci cannot degrade starch, the main carbohydrate of MH medium. 2-fold serial dilutions of the tested antibiotic were performed to obtain concentrations ranging from 0.5 to 512 μg/mL. LP were then added to the wells at the desired concentration. The medium was inoculated with a final inoculum of 5 × 10^5 CFU/mL. The MIC is the lowest concentration that prevents visible in vitro growth.

[3] = test system: E. faecalis merz96; assay: microbe, parasite or virus in culture; type: cell-based, Enterococcus faecalis; conditions: peptide alone, without vancomycin; VanB
[4] = test system: E. faecium 1 231 410; assay: microbe, parasite or virus in culture; type: cell-based, Enterococcus faecium; conditions: peptide alone, without vancomycin; VanA
[5] = test system: E. faecalis HIP11704; assay: microbe, parasite or virus in culture; type: cell-based, Enterococcus faecalis; conditions: peptide alone, without vancomycin; VanA
[6] = test system: E. faecium 1 231 502; assay: microbe, parasite or virus in culture; type: cell-based, Enterococcus faecium; conditions: peptide alone, without vancomycin; VanA
[7] = test system: E. faecium 1 230 933; assay: microbe, parasite or virus in culture; type: cell-based, Enterococcus faecium; conditions: peptide alone, without vancomycin; VanA
[8] = test system: S. aureus T-SAR12 VRSA.A; assay: microbe, parasite or virus in culture; type: cell-based, Staphylococcus aureus; conditions: peptide alone, without vancomycin; VanA
Method: as §1

[9] = test system: S. aureus T-SAR12 VRSA.B; assay: microbe, parasite or virus in culture; type: cell-based, Staphylococcus aureus; conditions: peptide alone, without vancomycin; VanB
Method: as §1

[10] = test system: E. faecalis V583 ΔvanB; assay: microbe, parasite or virus in culture; type: cell-based, Enterococcus faecalis; conditions: peptide alone, without vancomycin; van-
[11] = test system: S. aureus 16038 (VISA); assay: microbe, parasite or virus in culture; type: cell-based, Staphylococcus aureus; conditions: peptide alone, without vancomycin; van-
[12] = molecular target: T1, VanS^127-384 (Enterococcus faecium, UniProt Q06240); assay: biochemical; type: binding
T1 construct: only the C-terminal His6-tagged VanA-type VanS^127-384 could be obtained as a soluble protein; made in house; host or cells: E. coli BL21(DE3), plasmid pET29b(+) vanS^127-384

[13] = test system: Galleria mellonella larvae; assay: Toxicity toward larvae; type: in vivo; conditions: siamycin I-loaded nanoemulsion, about 18 mg/kg, 90 min and 24 h, observed to 96 h
Method: Larvae were infected with the wild-type strain E. faecalis V583, the isogenic vancomycin-sensitive mutant V583 ΔvanB, or an equivalent volume of saline solution. At t90min and t24h post-infection (p.i.), the larvae were treated with the nanoemulsion alone (referred to as formulation), the nanoemulsion loaded with siamycin I (3.92 μg/larvae; about 18 mg/kg), vancomycin (1 μg/larvae; about 4.6 mg/kg) alone, or a combination of both. Larvae survival was assessed, and statistical analysis was performed at the endpoint t96h.
To assess the C1LPs' efficacy as treatment of E. faecalis infection, the strains V583 or V583 ΔvanB were grown without previous C1LP exposition. 20 larvae were used for each condition. At 1.5 and 24 h p.i., larvae were injected with 4.76 mg of vancomycin per kilogram and/or 18 mg of siamycin I per kilogram, or the equivalent volume of nanoemulsion as a control. Larvae killing was then monitored between 1.5 and 96 h p.i.. Data and statistical analysis were performed using the Kaplan-Meier R package and the log -rank test, respectively.

[14] = test system: all tested E. faecalis and E. faecium strains; assay: Growth inhibition / MIC, strain panel; type: cell-based; conditions: peptide alone
[15] = test system: VanB- or VanA-type strains; conditions: same among the different VanB- or VanA-type strains
Method: as §1

[16] = molecular target: T2, VanS^127-384 (VanA-type, C-His6) (Enterococcus faecium, UniProt Q06240); assay: biochemical
T2 construct: only the C-terminal His6-tagged VanA-type VanS^127-384 could be obtained as a soluble protein; made in house; host or cells: E. coli BL21(DE3), plasmid pET29b(+) vanS^127-384
Method: (§2) Terrific medium[68] […] The culture was incubated at 37°C with agitation at 180 rpm. Induction of protein expression was achieved by adding IPTG to a final concentration of 0.1 mM when the bacterial density reached an OD600 of 0.5. The culture was then incubated for 20 h at 25°C with agitation at 180 rpm. The cells were then washed twice in purification buffer (20 mM sodium phosphate buffer, 500 mM NaCl, 5 mM MgCl2, 10 mM imidazole (pH 7.4)). Cells were treated with lysozyme at 1 mg/mL final concentration for 30 min at 4°C and lysed by sonication with the Fisherbrand Model 120 Sonic Dismembrator (Fisher scientific, USA). The total fraction recovered was centrifuged at 10000 rpm at 4°C for 30 to 45 min and only the supernatant, representing the soluble fraction, was recovered for purification.
(§3) Protein purification was carried out on a HisTrap FF Crude 5 mL column (Cytiva, USA) using the ÄKTA start device (Cytiva, USA), following the manufacturer’s recommendations. […] Protein concentration was determined with the Pierce BCA Protein Assay Kit (Thermo Scientific, USA) according to the manufacturer’s recommendations and then stored at −80°C.
(§4) The phosphorylation assay followed reported procedure with some modifications.[38] […] The reaction was allowed to start by adding ATP and NADH, and monitored continuously at 340 nm at 37°C by a microplate reader (POLARstar OMEGA, BMG Labtech, Germany). […]

[17] = molecular target: T3, VanS^127-384 (VanA-type, C-His6) (Enterococcus faecium, UniProt Q06240); assay: biochemical; conditions: 0–100 μM peptide
T3 construct: only the C-terminal His6-tagged VanA-type VanS^127-384 could be obtained as a soluble protein; made in house; host or cells: E. coli BL21(DE3), plasmid pET29b(+) vanS^127-384
T3 sequence (Q06240 whole entry, looked up): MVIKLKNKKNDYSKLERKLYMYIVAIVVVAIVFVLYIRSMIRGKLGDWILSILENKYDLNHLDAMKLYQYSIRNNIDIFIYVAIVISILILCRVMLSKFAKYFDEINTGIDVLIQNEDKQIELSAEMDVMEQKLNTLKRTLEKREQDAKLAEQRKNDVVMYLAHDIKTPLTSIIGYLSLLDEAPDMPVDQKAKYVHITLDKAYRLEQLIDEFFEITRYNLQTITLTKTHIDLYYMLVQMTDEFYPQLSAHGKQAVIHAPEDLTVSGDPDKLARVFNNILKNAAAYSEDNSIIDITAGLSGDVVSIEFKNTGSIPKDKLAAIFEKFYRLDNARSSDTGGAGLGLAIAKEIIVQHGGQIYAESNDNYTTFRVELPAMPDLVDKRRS
Method: as §2, §3, §4

[18] = molecular target: T4, VanS^127-384 (Enterococcus faecium, UniProt Q06240); assay: biochemical; type: binding; conditions: 10 μM VanS, pH 7.5; siamycin I 6 to 90 μM; sviceucin 12 to 180 μM; microcin J25 25 to 200 μM
T4 construct: only the C-terminal His6-tagged VanA-type VanS^127-384 could be obtained as a soluble protein; made in house; host or cells: E. coli BL21(DE3), plasmid pET29b(+) vanS^127-384
T4 sequence (Q06240 whole entry, looked up): T3 sequence (Q06240 whole entry, looked up)
Method: Protein purification was carried out on a HisTrap FF Crude 5 mL column (Cytiva, USA) using the ÄKTA start device (Cytiva, USA), following the manufacturer’s recommendations. The column was equilibrated with the purification buffer and then loaded with the soluble fraction. The protein of interest was washed and eluted with an imidazole gradient of 10 mM–500 mM in purification buffer. The purified protein was desalted and concentrated on a Vivaspin 6 30 kDa MWCO column (Cytiva, USA) according to the manufacturer’s recommendations. Protein concentration was determined with the Pierce BCA Protein Assay Kit (Thermo Scientific, USA) according to the manufacturer’s recommendations and then stored at −80°C.
All the experiments were performed in 96 Fast PCR Plates full skirt (Sarstedt, Germany) and in CFX96 Real-Time PCR system (BioRad, USA). Screening was conducted (Table S7) to determine the best buffer and ratios of protein and SYPRO Orange Protein Gel Stain (Sigma-Aldrich, USA). […] The Tm of each well was determined on the Melt Curve panel with a negative peak type. Tm means were calculated for each condition before model analysis. ΔT was calculated from the subtraction of the Tm of the protein with the buffer alone and the Tm with the lasso peptides. […]

Molecule	Lasso peptide MIC [1]	Lasso peptide MIC [2]	Lasso peptide MIC [3]	Lasso peptide MIC [4]	Lasso peptide MIC [5]	Lasso peptide MIC [6]	Lasso peptide MIC [7]	Lasso peptide MIC [8]	Lasso peptide MIC [9]	Lasso peptide MIC [10]	Lasso peptide MIC [11]	Kd [12]	toxicity toward the larvae [13]	MIC, complete growth inhibition [14]	MIC of peptide in absence of vancomycin [15]	IC50 [16]	effect on VanS^127-384 autophosphorylation, in words [17]	effect on melting temperature (Tm) of VanS^127-384, in words [18]
CC[C@H](C)[C@@H]1NC(=O)[C@H](C)NC(=O)[C@H](Cc2ccc(O)cc2)NC(=O)CNC(=O)[C@@H]2CSSC[C@@H]3NC(=O)C[C@H](NC(=O)[C@H](CC(N)=O)NC(=O)[C@H](CSSC[C@@H](C(=O)N[C@@H](Cc4ccccc4)C(=O)N[C@@H](Cc4c[nH]c5ccccc45)C(=O)O)NC(=O)[C@H](C(C)C)NC1=O)NC(=O)[C@H](CO)NC(=O)CNC(=O)[C@H](C(C)C)NC(=O)CNC(=O)[C@H](CC(C)C)NC3=O)C(=O)N[C@@H](Cc1ccccc1)C(=O)N[C@@H](C)C(=O)NCC(=O)N2 [Siamycin I] (CLGVGSCNDFAGCGYAIVCFW-OH; disulfide 1-13, 7-19; lactam N-9)	5 µM	5 µM	5 µM	5 µM	5 µM	5 µM	5 µM	5 µM	5 µM	5 µM	5 µM	38 ± 1 µM	did not exhibit toxicity toward the larvae	5 µM (≈ 10.8 µg/mL)	5 µM	–	–	–
CC[C@H](C)[C@@H]1NC(=O)[C@H](Cc2c[nH]c3ccccc23)NC(=O)[C@H](C)NC(=O)[C@H]([C@@H](C)O)NC(=O)CNC(=O)[C@@H]2CSSC[C@@H]3NC(=O)C[C@H](NC(=O)[C@H]([C@@H](C)O)NC(=O)[C@H](CSSC[C@@H](C(=O)N[C@H](C(=O)O)C(C)C)NC1=O)NC(=O)[C@H](CC(=O)O)NC(=O)CNC(=O)CNC(=O)[C@H](Cc1c[nH]c4ccccc14)NC(=O)[C@H](C(C)C)NC3=O)C(=O)N[C@@H](Cc1ccccc1)C(=O)N[C@@H](CC(C)C)C(=O)NCC(=O)N2 [Sviceucin] (CVWGGDCTDFLGCGTAWICV-OH; disulfide 1-13, 7-19; lactam N-9)	>10 µM	>10 µM	>10 µM	>10 µM	>10 µM	>10 µM	>10 µM	>10 µM	>10 µM	>10 µM	>10 µM	52 ± 1.6 µM	–	above 10 μM	> 10 µM	10.8 ± 1.5 µM	–	–
Microcin J25: unrelated lasso peptide microcin J25 (GGAGHVPEYFVGIGTPISFYG; not fully specified)	–	–	–	–	–	–	–	–	–	–	–	–	–	–	–	–	had no effect on VanS^127-384	did not affect the Tm of VanS^127-384
